Experimental data taken from article PMC6438731, “Extrasynaptic δ‐GABAA receptors are high‐affinity muscimol receptors” (Journal of Neurochemistry, 2019).
Values joined by “and” are separate entries in the source; they are usually repeats but may differ in a detail not shown here. Equal entries are not always repeated.

Key:
[1] = molecular target: native δ‐GABAARs in the cerebellum (WT‐δKO, α6βδ) (Mus musculus, UniProt P16305+P63137); experiment: [^3H]muscimol binding kinetics, cerebellum WT‐δKO (subtracted); conditions: 22°C
Protocol: (§1) WT and δKO forebrain and cerebellar membranes were prepared using a modification of the method of Squires and Saederup (2000) essentially as described by Uusi‐Oukari et al. (2014). […] forebrain along with midbrain region was homogenized into 10 mM Tris‐HCl, pH 8.0 buffer containing 2 mM EDTA, using an Ultra‐Turrax T25 (Janke & Kunkel IKA labortechnik) for 20 s at 9500 rpm. The homogenates were centrifuged at 20 000 g for 10 min at +4°C and the resulting pellets were washed three times by resuspension and re‐centrifugation with 10 mM Tris‐HCl, pH 8.5 buffer containing 0.2 M NaCl, and 5 mM EDTA. The resulting pellets were then suspended in ice‐cold H2O and centrifuged. The pellets were again washed three times with Tris, pH 8.5/NaCl/EDTA as described above. The resulting pellets were finally suspended in assay buffer consisting of 50 mM Tris‐base, pH adjusted to 7.4 with citric acid, and frozen at −70°C. Before a binding experiment, the suspension was thawed, centrifuged, and suspended in assay buffer.
The binding of [^3H]muscimol (5 nM) was measured in assay buffer at 22°C in a total volume of 300 μL. Triplicate technical replicates of mouse forebrain (190–215 μg protein), cerebellar (180–210 μg protein) or HEK cell (92–132 μg protein) membranes for each time point were incubated with shaking for various times (15 s–15 min) to measure association of the binding. […] Air‐dried filters were immersed in 3 mL of Optiphase HiSafe 3 scintillation fluid (Wallac, Turku, Finland) and radioactivity determined in a Wallac model 1410 liquid scintillation counter (Wallac, Turku, Finland). […]
The tubes were mixed and incubations at 22°C were terminated at various time points (30 s – 30 min) as described above. Dissociation of [^3H]muscimol from recombinant receptors in HEK cell membranes was also measured at 0–4°C (on ice) to evaluate how fast [^3H]muscimol dissociates from receptors while washing the filter with ice‐cold assay buffer during filtration. […]

[2] = molecular target: T1, α1β2γ2 recombinant GABAA receptor (Rattus norvegicus, UniProt P62813+P63138); experiment: [^3H]muscimol binding kinetics, recombinant α1β2γ2 in HEK293 membranes
T1 construct: expressed in transfected cells; host or cells: HEK293 (ATCC CRL-1573), pRK5 plasmids, membranes
From the text: Human embryonic kidney (HEK) 293 cells (ATCC Cat# CRL‐1573; RRID: CVCL_0045; a commonly misidentified cell line by ICLAC; last authenticated by STR DNA profiling in December 2018) were transfected with rat cDNAs (α1, L08490; α6, L08495; β2, X15467; β3, X15468; γ2S, L08497; δ, L08496) in pRK5 plasmids under the control of the cytomegalovirus promoter (Uusi‐Oukari et al. 2000), using the calcium phosphate precipitation method essentially as described (Lüddens and Korpi 1997). The plasmids were used in 1 : 1 and 1 : 1 : 1 ratios for transfections containing 2 [(α1 or α6) + (β2 or β3)] or 3 [(α1 or α6) + (β2 or β3) + (γ2S or δ)] different subunits, respectively (5 μg of each plasmid DNA for a 10 cm plate). Mock transfection was done using 5 μg pRK5 plasmid backbone. The cells were harvested 48 h after transfection. Culture medium was removed and the cells were detached from the plates by pipetting in ice‐cold assay buffer containing 2 mM EDTA. The cells were homogenized (Ultra Turrax, 20 s at 9500 rpm), the homogenates centrifuged at 20 000 g for 10 min at +4°C, and washed once with the same buffer. The homogenates were finally suspended in assay buffer (1 mL/plate) and either used directly to binding assays or stored frozen at −70°C.
The binding of [^3H]muscimol (5 nM) was measured in assay buffer at 22°C in a total volume of 300 μL. Triplicate technical replicates of mouse forebrain (190–215 μg protein), cerebellar (180–210 μg protein) or HEK cell (92–132 μg protein) membranes for each time point were incubated with shaking for various times (15 s–15 min) to measure association of the binding. […] The incubation was terminated by filtration of the samples with a Brandel Cell Harvester (model M‐24, Gaithersburg, MD, USA) onto Whatman GF/B filters (Whatman International Ltd., Maidstone, UK). The samples were rinsed twice with 4–5 mL of ice‐cold assay buffer. Filtration and rinsing steps took a total time of ~15 s. Air‐dried filters were immersed in 3 mL of Optiphase HiSafe 3 scintillation fluid (Wallac, Turku, Finland) and radioactivity determined in a Wallac model 1410 liquid scintillation counter (Wallac, Turku, Finland).
The tubes were mixed and incubations at 22°C were terminated at various time points (30 s – 30 min) as described above. Dissociation of [^3H]muscimol from recombinant receptors in HEK cell membranes was also measured at 0–4°C (on ice) to evaluate how fast [^3H]muscimol dissociates from receptors while washing the filter with ice‐cold assay buffer during filtration.

[3] = molecular target: forebrain membranes of δKO mice; experiment: Saturation analysis of [^3H]muscimol binding, δKO forebrain membranes; parameters: species or system mouse; conditions: 0°C
Protocol: as §1
Saturation analysis of [^3H]muscimol to WT and δKO mouse forebrain and cerebellar membranes was performed essentially as described by Uusi‐Oukari and Korpi (1989). […] The incubations were terminated as described above.

[4] = cerebellum WT‐δKO (native δ‐GABAARs, by subtraction)

Sequence of native δ‐GABAARs in the cerebellum (WT‐δKO, α6βδ) (P16305 20-453): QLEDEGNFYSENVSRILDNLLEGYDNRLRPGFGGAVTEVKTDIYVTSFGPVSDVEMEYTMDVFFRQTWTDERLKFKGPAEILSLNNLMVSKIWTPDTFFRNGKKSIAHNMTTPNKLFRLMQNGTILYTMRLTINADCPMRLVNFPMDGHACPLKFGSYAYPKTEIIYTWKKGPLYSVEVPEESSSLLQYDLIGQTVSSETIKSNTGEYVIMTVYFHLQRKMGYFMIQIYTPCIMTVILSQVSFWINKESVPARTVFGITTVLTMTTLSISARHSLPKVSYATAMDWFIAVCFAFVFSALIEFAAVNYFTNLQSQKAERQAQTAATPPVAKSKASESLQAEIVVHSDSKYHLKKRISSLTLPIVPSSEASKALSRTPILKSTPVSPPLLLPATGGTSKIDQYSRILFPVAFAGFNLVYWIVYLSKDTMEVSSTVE
Sequence of native δ‐GABAARs in the cerebellum (WT‐δKO, α6βδ) (P63137 26-512): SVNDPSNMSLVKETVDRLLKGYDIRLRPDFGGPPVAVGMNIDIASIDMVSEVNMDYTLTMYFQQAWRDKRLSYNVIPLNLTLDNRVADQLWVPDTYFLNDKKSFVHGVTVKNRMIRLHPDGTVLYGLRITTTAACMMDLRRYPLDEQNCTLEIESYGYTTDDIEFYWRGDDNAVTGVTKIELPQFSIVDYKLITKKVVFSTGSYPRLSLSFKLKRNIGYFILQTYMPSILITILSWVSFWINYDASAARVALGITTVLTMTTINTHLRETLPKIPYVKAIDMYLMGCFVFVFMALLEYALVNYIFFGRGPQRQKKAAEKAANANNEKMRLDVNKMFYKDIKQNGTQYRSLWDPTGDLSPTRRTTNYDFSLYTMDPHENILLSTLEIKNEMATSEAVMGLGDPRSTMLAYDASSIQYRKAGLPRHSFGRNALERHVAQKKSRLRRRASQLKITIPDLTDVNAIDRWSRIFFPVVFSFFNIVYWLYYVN
Sequence of native δ‐GABAARs in the cerebellum (WT‐δKO, α6βδ) (P22933 25-449 partner): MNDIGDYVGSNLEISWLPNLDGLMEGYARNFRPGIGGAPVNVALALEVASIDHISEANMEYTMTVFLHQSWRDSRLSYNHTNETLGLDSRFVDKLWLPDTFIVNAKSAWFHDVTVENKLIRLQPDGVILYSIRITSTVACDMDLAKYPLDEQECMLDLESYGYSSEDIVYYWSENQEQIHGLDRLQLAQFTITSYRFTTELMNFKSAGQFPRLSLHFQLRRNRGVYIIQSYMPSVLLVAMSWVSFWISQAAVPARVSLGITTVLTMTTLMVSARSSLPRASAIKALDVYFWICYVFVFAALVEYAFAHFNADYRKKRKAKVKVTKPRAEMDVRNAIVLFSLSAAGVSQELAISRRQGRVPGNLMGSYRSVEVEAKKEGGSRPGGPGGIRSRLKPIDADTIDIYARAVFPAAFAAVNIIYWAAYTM
T1 sequence (P62813 28-455): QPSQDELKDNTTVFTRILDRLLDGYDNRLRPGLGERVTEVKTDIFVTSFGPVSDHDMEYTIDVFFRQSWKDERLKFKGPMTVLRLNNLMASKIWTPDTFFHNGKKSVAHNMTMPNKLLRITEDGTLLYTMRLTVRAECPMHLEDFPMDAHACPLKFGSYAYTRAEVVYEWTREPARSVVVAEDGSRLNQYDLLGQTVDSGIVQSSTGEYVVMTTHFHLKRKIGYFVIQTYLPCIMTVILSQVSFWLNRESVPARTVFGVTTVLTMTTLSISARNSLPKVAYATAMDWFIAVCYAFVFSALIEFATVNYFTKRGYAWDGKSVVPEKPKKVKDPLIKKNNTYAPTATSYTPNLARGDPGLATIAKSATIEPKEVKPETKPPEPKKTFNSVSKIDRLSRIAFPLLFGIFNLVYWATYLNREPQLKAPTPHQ
T1 sequence (P63138 26-474): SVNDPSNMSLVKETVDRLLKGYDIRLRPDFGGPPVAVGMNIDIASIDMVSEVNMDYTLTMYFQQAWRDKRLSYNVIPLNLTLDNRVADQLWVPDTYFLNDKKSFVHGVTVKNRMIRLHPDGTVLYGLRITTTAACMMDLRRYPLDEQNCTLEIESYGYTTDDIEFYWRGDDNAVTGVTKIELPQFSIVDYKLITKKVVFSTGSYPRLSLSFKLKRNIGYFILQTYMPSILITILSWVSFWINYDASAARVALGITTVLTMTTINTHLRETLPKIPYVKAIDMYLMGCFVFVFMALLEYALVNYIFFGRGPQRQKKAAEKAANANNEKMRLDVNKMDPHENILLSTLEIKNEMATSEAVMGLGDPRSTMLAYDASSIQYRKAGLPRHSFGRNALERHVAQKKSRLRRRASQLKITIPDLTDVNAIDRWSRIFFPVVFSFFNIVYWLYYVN
T1 sequence (P18508 39-466 partner): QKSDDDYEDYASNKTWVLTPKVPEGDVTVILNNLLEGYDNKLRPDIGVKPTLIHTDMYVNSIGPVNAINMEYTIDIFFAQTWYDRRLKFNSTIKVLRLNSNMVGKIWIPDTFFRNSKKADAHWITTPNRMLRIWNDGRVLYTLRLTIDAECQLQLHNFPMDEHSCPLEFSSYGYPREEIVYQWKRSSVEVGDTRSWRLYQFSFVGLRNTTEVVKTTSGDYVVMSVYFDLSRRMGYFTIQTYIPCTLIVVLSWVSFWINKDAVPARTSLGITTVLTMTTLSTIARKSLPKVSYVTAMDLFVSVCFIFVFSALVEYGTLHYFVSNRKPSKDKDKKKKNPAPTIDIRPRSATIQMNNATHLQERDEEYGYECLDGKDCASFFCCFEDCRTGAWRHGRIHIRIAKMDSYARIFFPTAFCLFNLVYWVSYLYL

In the case of NCc1cc(=O)[nH]o1 [[^3H]muscimol] [[Methylene‐^3H]muscimol], the k off [1, 4] is reported as 0.002 ± 0.0005 s⁻¹, the k on [1, 4] is reported as 1.2 ± 0.2 × 10^8 M^−1 × min^−1 and the Kd ([1]; cerebellum WT‐δKO (native δ‐GABAARs, α6βδ), K D = koff/kon) is reported as ~1 nM and 1 nM. The “dissociation of [^3H]muscimol binding during the first 15 s after pre‐incubation” value ([2]; α1β2γ2, 0°C, approximated) was “about 10%”, the Kd ([2]; α1β2γ2 in HEK293 membranes, 22°C, K D = koff/kon) was 1.6 nM and the k off ([2]; α1β2γ2 in HEK293 membranes, +4 °C) was 0.00587 ± 0.00015 s⁻¹. The k off ([2]; α1β2γ2 in HEK293 membranes, room temperature (22°C)) was 0.0297 ± 0.003 s⁻¹, the k on ([2]; α1β2γ2 in HEK293 membranes, room temperature (22°C), 5 nM [^3H]muscimol) was 11 ± 0.6 × 10^8 M^−1 × min^−1 and the “Apparent pKD” value [3] was 7.68 ± 0.05.
